How the values were obtained:
[1] = Effect of a single dose of cyclosporine on DAA steady-state pharmacokinetics; format: in vivo, human (healthy volunteers); conditions: for change in pharmacokinetic parameters: by cyclosporine and tacrolimus, steady-state 3D regimen
[2] = format: in vivo, human (healthy volunteers)
[3] = ABT-450 200 mg and 250 mg for 12 to 24 weeks; HCV-infected patients; cited from earlier work

COC(=O)N[C@H](C(=O)N1CCC[C@H]1C(=O)Nc1ccc([C@@H]2CC[C@@H](c3ccc(NC(=O)[C@@H]4CCCN4C(=O)[C@@H](NC(=O)OC)C(C)C)cc3)N2c2ccc(C(C)(C)C)cc2)cc1)C(C)C [Ombitasvir, ombitasvir]
change in steady-state exposures (Cmax and AUC) ([1]; in the presence of cyclosporine or tacrolimus vs absence): ≤ 15%

CC(C)c1nc(CN(C)C(=O)N[C@H](C(=O)N[C@@H](Cc2ccccc2)C[C@H](O)[C@H](Cc2ccccc2)NC(=O)OCc2cncs2)C(C)C)cs1 [Ritonavir, ritonavir]
change in pharmacokinetic parameters [1]: ≤ 34%

C=CC[C@@H]1/C=C(\C)C[C@H](C)C[C@H](OC)[C@H]2O[C@@](O)(C(=O)C(=O)N3CCCC[C@H]3C(=O)O[C@H](/C(C)=C/[C@@H]3CC[C@@H](O)[C@H](OC)C3)[C@H](C)[C@@H](O)CC1=O)[C@H](C)C[C@@H]2OC [tacrolimus]
AUC(0-inf) ([2]; human, whole blood, oral, 2 mg): 118 ng·h/mL
Cmax ([2]; human, whole blood, oral, 2 mg): 11 ng/mL
Tmax ([2]; human, whole blood, oral, 2 mg): 1.8 h
concentration at 12 h ([2]; human, whole blood, oral, 2 mg): 1.6 ng/mL
concentration at 24 h ([2]; human, whole blood, oral, 2 mg): 1.1 ng/mL
delay in Tmax ([2]; in the presence of the 3D regimen at steady state vs tacrolimus alone): 3.2 h
dose-normalized C24 with 3D relative to dose-normalized C12 alone ([2]; tacrolimus with steady-state 3D regimen vs tacrolimus alone): 11 fold

COc1c(-c2ccc3cc(NS(C)(=O)=O)ccc3c2)cc(-n2ccc(=O)[nH]c2=O)cc1C(C)(C)C [Dasabuvir, dasabuvir]
change in pharmacokinetic parameters [1]: ≤ 34%

COc1c(-c2ccc3cc(NS(C)(=O)=O)ccc3c2)cc(-n2ccc(=O)[nH]c2=O)cc1C(C)(C)CO [Dasabuvir M1]
change in pharmacokinetic parameters [1]: ≤ 34%

Cc1cnc(C(=O)N[C@H]2CCCCC/C=C\[C@@H]3C[C@@]3(C(=O)NS(=O)(=O)C3CC3)NC(=O)[C@@H]3C[C@@H](Oc4nc5ccccc5c5ccccc45)CN3C2=O)cn1 [ABT-450]
safety and tolerability [3]: safe and well tolerated

— article PMC5024008 (American Journal of Transplantation, 2015)
